{"source": "paper PMC5218480", "about": "(PLoS ONE, 2017)", "test_system": "MV-4-11 cells", "assay": "Gene expression microarray analysis (Affymetrix PrimeView) and GSEA", "assay_type": "cell-based, human", "parameters": "RFU PODN (11730768_x_at) / Fold change /veh PODN (11730768_x_at) / RFU LINC00158 (11744669_a_at) / Fold change /veh LINC00158 (11744669_a_at) / RFU DUSP10 (11751237_a_at) / Fold change /veh DUSP10 (11751237_a_at) / RFU ID3 (11757404_x_at) / Fold change /veh ID3 (11757404_x_at) / RFU PLEKHG5 (11737974_s_at) / Fold change /veh PLEKHG5 (11737974_s_at) / RFU LRRC4B (11730491_at) / Fold change /veh LRRC4B (11730491_at) / RFU GIMAP4 (11747438_a_at) / Fold change /veh GIMAP4 (11747438_a_at) / RFU KRT8 (11758183_x_at) / Fold change /veh KRT8 (11758183_x_at) / RFU CNN1 (11734310_a_at) / Fold change /veh CNN1 (11734310_a_at) / RFU VPS37D (11726825_at) / Fold change /veh VPS37D (11726825_at) / RFU C10orf10 (11716522_x_at) / Fold change /veh C10orf10 (11716522_x_at) / RFU KIR2DL2 /// KIR2DL4 /// KIR2DL5A /// KIR2DL5B /// KIR2DS1 /// KIR2DS2 /// KIR2DS3 /// KIR2DS4 /// KIR3DL3 /// KIR3DL3 /// KIR3DS1 (11738374_at) / Fold change /veh KIR2DL2 /// KIR2DL4 /// KIR2DL5A /// KIR2DL5B /// KIR2DS1 /// KIR2DS2 /// KIR2DS3 /// KIR2DS4 /// KIR3DL3 /// KIR3DL3 /// KIR3DS1 (11738374_at) / RFU C1QL1 (11718748_at) / Fold change /veh C1QL1 (11718748_at) / RFU TMPRSS4 (11747572_a_at) / Fold change /veh TMPRSS4 (11747572_a_at) / RFU HAMP (11756126_x_at) / Fold change /veh HAMP (11756126_x_at) / RFU RNFT2 (11725882_a_at) / Fold change /veh RNFT2 (11725882_a_at) / RFU NR4A2 (11747474_a_at) / Fold change /veh NR4A2 (11747474_a_at) / RFU ABCC12 (11746883_a_at) / Fold change /veh ABCC12 (11746883_a_at) / RFU TMEM136 (11760407_x_at) / Fold change /veh TMEM136 (11760407_x_at) / RFU CLDN22 /// WWC2 (11732394_at) / Fold change /veh CLDN22 /// WWC2 (11732394_at) / RFU HLA-DPB1 (11760878_x_at) / Fold change /veh HLA-DPB1 (11760878_x_at) / RFU SPINT1 (11716480_a_at) / Fold change /veh SPINT1 (11716480_a_at) / RFU GAP43 (11754022_s_at) / Fold change /veh GAP43 (11754022_s_at) / RFU A4GNT (11735810_at) / Fold change /veh A4GNT (11735810_at) / RFU PRB3 (11715151_x_at) / Fold change /veh PRB3 (11715151_x_at) / RFU TUBB4B (11761932_at) / Fold change /veh TUBB4B (11761932_at) / RFU CAPN14 (11732068_a_at) / Fold change /veh CAPN14 (11732068_a_at) / RFU TMCC2 (11721928_a_at) / Fold change /veh TMCC2 (11721928_a_at) / RFU IRGQ (11745062_a_at) / Fold change /veh IRGQ (11745062_a_at) / RFU FAM174B (11720279_a_at) / Fold change /veh FAM174B (11720279_a_at) / RFU TMPRSS4 (11748680_a_at) / Fold change /veh TMPRSS4 (11748680_a_at) / RFU FAM212B (11763350_a_at) / Fold change /veh FAM212B (11763350_a_at) / RFU PLEKHG5 (11743358_a_at) / Fold change /veh PLEKHG5 (11743358_a_at) / RFU ZSCAN30 (11745921_a_at) / Fold change /veh ZSCAN30 (11745921_a_at) / RFU CMKLR1 (11741424_a_at) / Fold change /veh CMKLR1 (11741424_a_at) / RFU LOC101060620 /// MAPK8IP1 (11723275_at) / Fold change /veh LOC101060620 /// MAPK8IP1 (11723275_at) / RFU SPTSSB (11747773_x_at) / Fold change /veh SPTSSB (11747773_x_at) / RFU PRSS12 (11739890_at) / Fold change /veh PRSS12 (11739890_at) / RFU BIN1 (11741810_x_at) / Fold change /veh BIN1 (11741810_x_at) / RFU WNT11 (11732464_a_at) / Fold change /veh WNT11 (11732464_a_at) / RFU C10orf10 (11716521_a_at) / Fold change /veh C10orf10 (11716521_a_at) / RFU C5orf56 (11738089_at) / Fold change /veh C5orf56 (11738089_at) / RFU CYB561 (11721691_x_at) / Fold change /veh CYB561 (11721691_x_at) / RFU ANKRD19P (11752326_a_at) / Fold change /veh ANKRD19P (11752326_a_at) / RFU OR2T12 /// OR2T33 /// OR2T8 (11738714_s_at) / Fold change /veh OR2T12 /// OR2T33 /// OR2T8 (11738714_s_at) / RFU VCAN (11748164_a_at) / Fold change /veh VCAN (11748164_a_at) / RFU JSRP1 (11732532_at) / Fold change /veh JSRP1 (11732532_at) / RFU KRTAP10-11 (11738290_x_at) / Fold change /veh KRTAP10-11 (11738290_x_at) / RFU MYO3A (11730013_a_at) / Fold change /veh MYO3A (11730013_a_at) / RFU EBF3 (11725865_a_at) / Fold change /veh EBF3 (11725865_a_at) / RFU CAMK2N1 (11719241_x_at) / Fold change /veh CAMK2N1 (11719241_x_at) / RFU C5orf56 (11738088_a_at) / Fold change /veh C5orf56 (11738088_a_at) / RFU OLFML3 (11715873_a_at) / Fold change /veh OLFML3 (11715873_a_at) / RFU LOC100653217 /// NTM (11731650_a_at) / Fold change /veh LOC100653217 /// NTM (11731650_a_at) / RFU MAPK11 (11762145_a_at) / Fold change /veh MAPK11 (11762145_a_at) / RFU FIZ1 (11724087_x_at) / Fold change /veh FIZ1 (11724087_x_at) / RFU OASL (11726364_x_at) / Fold change /veh OASL (11726364_x_at) / RFU SOX15 (11748057_x_at) / Fold change /veh SOX15 (11748057_x_at) / RFU CD79A (11719716_a_at) / Fold change /veh CD79A (11719716_a_at) / RFU HIST1H1D (11736915_at) / Fold change /veh HIST1H1D (11736915_at) / RFU CASKIN2 (11723855_a_at) / Fold change /veh CASKIN2 (11723855_a_at) / RFU LOC730098 (11760151_x_at) / Fold change /veh LOC730098 (11760151_x_at) / RFU OR4N2 (11742367_at) / Fold change /veh OR4N2 (11742367_at) / RFU PRRT2 (11749266_a_at) / Fold change /veh PRRT2 (11749266_a_at) / RFU SNX32 (11753110_a_at) / Fold change /veh SNX32 (11753110_a_at) / RFU CDHR5 (11726645_a_at) / Fold change /veh CDHR5 (11726645_a_at) / RFU RCAN1 (11760418_a_at) / Fold change /veh RCAN1 (11760418_a_at) / RFU FAM167A (11723789_a_at) / Fold change /veh FAM167A (11723789_a_at) / RFU FAM26E (11764081_at) / Fold change /veh FAM26E (11764081_at) / RFU ISYNA1 (11749810_s_at) / Fold change /veh ISYNA1 (11749810_s_at) / RFU ACY1 (11761880_at) / Fold change /veh ACY1 (11761880_at) / RFU 11764098_at / Fold change /veh 11764098_at / RFU SAMD14 (11745864_x_at) / Fold change /veh SAMD14 (11745864_x_at) / RFU NPB (11741838_a_at) / Fold change /veh NPB (11741838_a_at) / RFU TMPRSS6 (11731388_a_at) / Fold change /veh TMPRSS6 (11731388_a_at) / RFU KRTAP10-2 (11738614_at) / Fold change /veh KRTAP10-2 (11738614_at) / RFU ARHGAP8 /// PRR5-ARHGAP8 (11727945_x_at) / Fold change /veh ARHGAP8 /// PRR5-ARHGAP8 (11727945_x_at) / RFU KRTAP5-7 /// NADSYN1 (11734609_at) / Fold change /veh KRTAP5-7 /// NADSYN1 (11734609_at) / RFU RASL12 (11751679_a_at) / Fold change /veh RASL12 (11751679_a_at) / RFU CDKN2B (11736163_a_at) / Fold change /veh CDKN2B (11736163_a_at) / RFU PRF1 (11729649_at) / Fold change /veh PRF1 (11729649_at) / RFU, ZNF638 /// ZNF638-IT1 / Fold change vs veh, ZNF638 /// ZNF638-IT1 / RFU, PANK3 / Fold change vs veh, PANK3 / RFU, SH3YL1 / Fold change vs veh, SH3YL1 / RFU, ZEB2 / Fold change vs veh, ZEB2 / RFU, NRIP1 / Fold change vs veh, NRIP1 / RFU, PTTG1IP / Fold change vs veh, PTTG1IP / RFU, CAPN2 / Fold change vs veh, CAPN2 / RFU, MED14 / Fold change vs veh, MED14 / RFU, SNORA58 / Fold change vs veh, SNORA58 / RFU, C1orf63 / Fold change vs veh, C1orf63 / RFU, LRRFIP1 / Fold change vs veh, LRRFIP1 / RFU, NDUFAF7 / Fold change vs veh, NDUFAF7 / RFU, SLC12A2 / Fold change vs veh, SLC12A2 / RFU, IBTK / Fold change vs veh, IBTK / RFU, ESF1 / Fold change vs veh, ESF1 / Fold change vs veh, TMEM50B / RFU, TAOK1 / Fold change vs veh, TAOK1 / RFU, ACBD3 / Fold change vs veh, ACBD3 / RFU, TMA16 / Fold change vs veh, TMA16 / RFU, RWDD3 / Fold change vs veh, RWDD3 / RFU, BCAT1 / Fold change vs veh, BCAT1 / RFU, EDEM3 / Fold change vs veh, EDEM3 / RFU, TMEM33 / Fold change vs veh, TMEM33 / RFU, WDR75 / Fold change vs veh, WDR75 / RFU, AHCTF1 / Fold change vs veh, AHCTF1 / RFU, TFRC / Fold change vs veh, TFRC / RFU, ZDHHC17 / Fold change vs veh, ZDHHC17 / RFU, NOM1 / Fold change vs veh, NOM1 / RFU, ARL8B / Fold change vs veh, ARL8B / RFU, ZBTB11 / Fold change vs veh, ZBTB11 / RFU, TAMM41 / Fold change vs veh, TAMM41 / RFU, KIAA1704 /// LOC100996395 / Fold change vs veh, KIAA1704 /// LOC100996395 / RFU, ING1 / Fold change vs veh, ING1 / RFU, TRMT61B / Fold change vs veh, TRMT61B / RFU, FUBP3 / Fold change vs veh, FUBP3 / RFU, TP53 / Fold change vs veh, TP53 / RFU, TNKS2 / Fold change vs veh, TNKS2 / RFU, ZFP14 / Fold change vs veh, ZFP14 / RFU, ACTR2 / Fold change vs veh, ACTR2 / RFU, PPP3R1 / Fold change vs veh, PPP3R1 / RFU, PIK3R1 / Fold change vs veh, PIK3R1 / RFU, HNRNPA1 / Fold change vs veh, HNRNPA1 / RFU, RNF170 / Fold change vs veh, RNF170 / RFU, ZNF28 / Fold change vs veh, ZNF28 / RFU, RNGTT / Fold change vs veh, RNGTT / RFU, OGT / Fold change vs veh, OGT / RFU, BRD1 / Fold change vs veh, BRD1 / RFU, MARS / Fold change vs veh, MARS / RFU, ZNF655 / Fold change vs veh, ZNF655 / RFU, FAHD1 / Fold change vs veh, FAHD1 / RFU, BDP1 / Fold change vs veh, BDP1 / RFU, LRRCC1 / Fold change vs veh, LRRCC1 / RFU, ARID1A / Fold change vs veh, ARID1A / RFU, ZNF146 / Fold change vs veh, ZNF146 / RFU, ZNF330 / Fold change vs veh, ZNF330 / RFU, GPN3 / Fold change vs veh, GPN3 / RFU, C9orf123 / Fold change vs veh, C9orf123 / RFU, N4BP2L2 / Fold change vs veh, N4BP2L2 / RFU, ARFIP1 / Fold change vs veh, ARFIP1 / RFU, FAM179B / Fold change vs veh, FAM179B / RFU, BCL10 / Fold change vs veh, BCL10 / RFU, UHRF1BP1L / Fold change vs veh, UHRF1BP1L / RFU, BET1 / Fold change vs veh, BET1 / RFU, CNOT2 / Fold change vs veh, CNOT2 / RFU, ZNF268 / Fold change vs veh, ZNF268 / Fold change vs veh, ZNF507 / RFU, DGCR2 / Fold change vs veh, DGCR2 / RFU, WDSUB1 / Fold change vs veh, WDSUB1 / Fold change vs veh, HSP90B1 /// MIR3652 / RFU, ADSS / Fold change vs veh, ADSS / RFU, GK / Fold change vs veh, GK / RFU, ZNF148 / Fold change vs veh, ZNF148 / RFU, TAF9 / Fold change vs veh, TAF9 / RFU, SLC1A5 / Fold change vs veh, SLC1A5 / RFU, SLMO2 / Fold change vs veh, SLMO2 / RFU, ABCC4 / Fold change vs veh, ABCC4 / RFU, LOC101060439 /// RAP1B / Fold change vs veh, LOC101060439 /// RAP1B / RFU, RFX7 / Fold change vs veh, RFX7 / RFU, GTPBP10 / Fold change vs veh, GTPBP10 / RFU, CNEP1R1 / Fold change vs veh, CNEP1R1 / RFU, BIVM-ERCC5 /// ERCC5 / Fold change vs veh, BIVM-ERCC5 /// ERCC5 / RFU, ILF3 / Fold change vs veh, ILF3 / RFU 11762660_at / Fold change /veh 11762660_at / RFU VCAN (11757783_s_at) / Fold change /veh VCAN (11757783_s_at) / RFU DDX43 (11728927_at) / Fold change /veh DDX43 (11728927_at) / RFU KRT8 (11758188_x_at) / Fold change /veh KRT8 (11758188_x_at) / RFU NKD1 (11759106_at) / Fold change /veh NKD1 (11759106_at) / RFU SRD5A1 (11742802_a_at) / Fold change /veh SRD5A1 (11742802_a_at) / RFU TPSAB1 /// TPSB2 (11721975_s_at) / Fold change /veh TPSAB1 /// TPSB2 (11721975_s_at) / RFU GSTM3 (11746129_a_at) / Fold change /veh GSTM3 (11746129_a_at) / RFU IL23R (11737362_x_at) / Fold change /veh IL23R (11737362_x_at) / RFU TMEM51 (11727254_a_at) / Fold change /veh TMEM51 (11727254_a_at) / RFU PIWIL2 (11732686_x_at) / Fold change /veh PIWIL2 (11732686_x_at) / RFU ORM1 (11744905_x_at) / Fold change /veh ORM1 (11744905_x_at) / RFU CCDC152 (11743942_at) / Fold change /veh CCDC152 (11743942_at) / RFU ECM1 (11717891_a_at) / Fold change /veh ECM1 (11717891_a_at) / RFU IL23R (11748794_a_at) / Fold change /veh IL23R (11748794_a_at) / RFU TNFAIP8L3 (11732012_x_at) / Fold change /veh TNFAIP8L3 (11732012_x_at) / RFU MBOAT4 (11741988_at) / Fold change /veh MBOAT4 (11741988_at) / RFU 11764193_at / Fold change /veh 11764193_at / RFU TMEM53 (11763286_at) / Fold change /veh TMEM53 (11763286_at) / RFU MAGEB2 (11727129_at) / Fold change /veh MAGEB2 (11727129_at) / RFU TMEM200A (11744735_a_at) / Fold change /veh TMEM200A (11744735_a_at) / RFU CCDC152 (11751479_a_at) / Fold change /veh CCDC152 (11751479_a_at) / RFU FAM211A (11726209_a_at) / Fold change /veh FAM211A (11726209_a_at) / RFU RGS16 (11746705_a_at) / Fold change /veh RGS16 (11746705_a_at) / RFU VCAN (11755009_s_at) / Fold change /veh VCAN (11755009_s_at) / RFU RHOB (11743442_s_at) / Fold change /veh RHOB (11743442_s_at) / RFU RGS16 (11720943_a_at) / Fold change /veh RGS16 (11720943_a_at) / RFU RGS16 (11720944_at) / Fold change /veh RGS16 (11720944_at) / RFU, VPS4B / Fold change vs veh, VPS4B / RFU, CREB1 / Fold change vs veh, CREB1 / RFU, DNAJC13 / Fold change vs veh, DNAJC13 / RFU, GNAQ / Fold change vs veh, GNAQ / RFU, CDK5R1 / Fold change vs veh, CDK5R1 / RFU, ZRANB3 / Fold change vs veh, ZRANB3 / RFU, CUL4A / Fold change vs veh, CUL4A / RFU, CCNY / Fold change vs veh, CCNY / RFU, UFL1 / Fold change vs veh, UFL1 / RFU, COG3 / Fold change vs veh, COG3 / RFU, DIAPH2 / Fold change vs veh, DIAPH2 / RFU, SKA2 / Fold change vs veh, SKA2 / RFU, AFF3 / Fold change vs veh, AFF3 / RFU, LMF1 / Fold change vs veh, LMF1 / RFU, IPO11 / Fold change vs veh, IPO11 / RFU, DFFB / Fold change vs veh, DFFB / RFU, FOXP1 / Fold change vs veh, FOXP1 / RFU, CARD8 / Fold change vs veh, CARD8 / RFU, STRN3 / Fold change vs veh, STRN3 / RFU, ADK / Fold change vs veh, ADK / RFU, RASSF2 / Fold change vs veh, RASSF2 / RFU, WIPF1 / Fold change vs veh, WIPF1 / RFU, LARP1B / Fold change vs veh, LARP1B / RFU, RASA1 / Fold change vs veh, RASA1 / RFU, RB1 / Fold change vs veh, RB1 / RFU, PPFIA1 / Fold change vs veh, PPFIA1 / RFU, MAT2A / Fold change vs veh, MAT2A / RFU, CCT5 / Fold change vs veh, CCT5 / RFU, WDR92 / Fold change vs veh, WDR92 / RFU, CUX1 / Fold change vs veh, CUX1 / RFU, TTC7A / Fold change vs veh, TTC7A / RFU, TMEM135 / Fold change vs veh, TMEM135 / RFU, DEPTOR / Fold change vs veh, DEPTOR / RFU, CPM / Fold change vs veh, CPM / RFU, DNAJB6 / Fold change vs veh, DNAJB6 / RFU, CACNA2D3 / Fold change vs veh, CACNA2D3 / RFU, DTX4 / Fold change vs veh, DTX4 / RFU, TFCP2 / Fold change vs veh, TFCP2 / RFU, GMCL1 /// GMCL1P1 / Fold change vs veh, GMCL1 /// GMCL1P1 / RFU, AEBP2 / Fold change vs veh, AEBP2 / RFU, SNHG1 /// SNORD22 /// SNORD25 /// SNORD26 /// SNORD27 /// SNORD28 /// SNORD29 /// SNORD31 / Fold change vs veh, SNHG1 /// SNORD22 /// SNORD25 /// SNORD26 /// SNORD27 /// SNORD28 /// SNORD29 /// SNORD31 / Fold change (Aza/veh), C12orf56 (ProbeSet 11735607_a_at) / Fold change (ACY-1035/veh), C12orf56 (ProbeSet 11735607_a_at) / Fold change (Aza/veh), FGFR1OP (ProbeSet 11751329_s_at) / Fold change (ACY-1035/veh), FGFR1OP (ProbeSet 11751329_s_at) / Fold change (Aza/veh), VPS36 (ProbeSet 11739960_a_at) / Fold change (ACY-1035/veh), VPS36 (ProbeSet 11739960_a_at) / RFU SYPL1 (11715823_x_at) / Fold change /veh SYPL1 (11715823_x_at) / RFU IGFBP7 (11715501_s_at) / Fold change /veh IGFBP7 (11715501_s_at) / RFU REEP3 (11722064_at) / Fold change /veh REEP3 (11722064_at) / RFU IGLL1 (11728026_x_at) / Fold change /veh IGLL1 (11728026_x_at): dose or concentration left out as unconfirmed", "conditions": "ProbeSet 11731461_x_at; LIST D"}
{"smiles": "Nc1ncn([C@@H]2O[C@H](CO)[C@@H](O)[C@H]2O)c(=O)n1", "note": "[azacitidine]", "values": [{"measurement": "Fold change vs veh, CPM", "value": 0.79}]}
